Measurements taken from ChEMBL document CHEMBL5143757, “Combination of Cyclin-Dependent Kinase 4 Inhibitors and Androgen Receptor Inhibitors as Cancer Therapy” (2022).

Assays:
Type in all cases: functional
Settings in all cases: 96 h, read-out: GI
[1] = Growth inhibition of human LNCaP/AR cells assessed as decrease in tumor spheroid growth at 100 nM with media replenishment twice per week along with 3 to 4-day interval compound relative to control
[2] = Growth inhibition of human LNCaP/AR cells assessed as decrease in tumor spheroid growth at 300 nM with media replenishment twice per week along with 3 to 4-day interval compound relative to control
[3] = Growth inhibition of human LNCaP/AR cells assessed as decrease in tumor spheroid growth at 1000 nM with media replenishment twice per week along with 3 to 4-day interval compound relative to control
[4] = Growth inhibition of human LNCaP/AR cells assessed as decrease in tumor spheroid growth at 300 nM with media replenishment twice per week along with 3 to 4-day interval compound in presence of enzalutamide relative to control
[5] = Growth inhibition of human LNCaP/AR cells assessed as decrease in tumor spheroid growth at 30 nM with media replenishment twice per week along with 3 to 4-day interval compound relative to control
[6] = Growth inhibition of human LNCaP/AR cells assessed as decrease in tumor spheroid growth at 30 nM with media replenishment twice per week along with 3 to 4-day interval compound in presence of enzalutamide relative to control
[7] = Growth inhibition of human LNCaP/AR cells assessed as decrease in tumor spheroid growth at 1000 nM with media replenishment twice per week along with 3 to 4-day interval compound in presence of palbociclib relative to control
[8] = Growth inhibition of human LNCaP/AR cells assessed as decrease in tumor spheroid growth at 1000 nM with media replenishment twice per week along with 3 to 4-day interval compound in presence of Compound A relative to control

Compound	inhibition of growth at 0.1 µM [1] [%]	inhibition of growth at 0.3 µM [2] [%]	inhibition of growth at 1 µM [3] [%]	inhibition of growth at 0.3 µM [4] [%]	inhibition of growth at 0.03 µM [5] [%]	inhibition of growth at 0.03 µM [6] [%]	inhibition of growth at 1 µM [7] [%]	inhibition of growth at 1 µM [8] [%]
CC(C)n1c(C(C)(C)O)nc2c(F)cc(-c3nc(N[C@@H]4CCOC[C@H]4O)ncc3Cl)cc21 [ATIRMOCICLIB]	27	38	53	70	–	–	–	–
CC(=O)c1c(C)c2cnc(Nc3ccc(N4CCNCC4)cn3)nc2n(C2CCCC2)c1=O [PALBOCICLIB]	24	–	–	–	5	47	–	–
CNC(=O)c1ccc(N2C(=S)N(c3ccc(C#N)c(C(F)(F)F)c3)C(=O)C2(C)C)cc1F [ENZALUTAMIDE]	–	–	46	–	–	–	47	70
